Data set [1] concerns Human lung fibroblast normal cell line (WI38). Put plainly: cells. It counts as cell-based. An excerpt:
(§1) Finally, all the studied phosphonate compounds have moderate to weak cytotoxicity activity on the normal cell WI-38.
(§2) The in vitro antitumor activity of the compounds under study in this research was investigated cell growth using the MTT assay, [31]. The human tumor cell lines that used to evaluate the activity are Human lung fibroblast (WI38), Colorectal carcinoma Colon cancer (HCT-116) and Epdermoid Carcinoma (HEP2). The MTT assay is a standard colorimetric assay that is used to measure cell growth. It is used to determine cytotoxicity of potential medicinal agents and other toxic materials. Detailed procedures for the MTT assay method is presented in the supporting information (Sect. S2). […]
(§3) Cytotoxicity Assay (Section S2)
(§4) The cell lines Human lung fibroblast (WI38), Colorectal carcinoma Colon cancer (HCT-116) and Epdermoid Carcinoma (HEP2) were used to determine the inhibitory effects of compounds on cell growth using the MTT assay. This colorimetric assay is based on the conversion of the yellow tetrazolium bromide (MTT) to a purple formazan derivative by mitochondrial succinate dehydrogenase in viable cells. Cell lines were cultured in RPMI-1640 medium with 10% fetal bovine serum. Antibiotics added were 100 units/ml penicillin and 100µg/ml streptomycin at 37 C in a 5% Co2 incubator. The cell lines were seedes in a 96-well plate at a density of 1.0x10^4 cells/well.
(§5) At 37 C for 48 h under 5% CO2. After incubation the cells were treated with different concentration of compounds and incubated for 24 h. After 24 h of drug treatment, 20 µl of MTT solution at […]
(§6) 5mg/ml was added and incubated for 4 h. Dimethyl sulfoxide (DMSO) in volume of 100 µl is added into each well to dissolve the purple formazan formed. The colorimetric assay is measured and recorded at absorbance of 570 nm using a plate reader (EXL 800, USA). The relative cell viability in percentage was calculated as (A570 of treated samples/A570 of untreated sample) X 100.

Data set [2] relates to Colorectal carcinoma Colon cancer (HCT-116). Kind of data set: cells. It counts as cell-based, human. The conditions noted are these: for IC50: Homo sapiens; for relative activity for colon carcinoma cells (HCT-116), in words: among all compounds.
Text: as §1, §2, §3, §4, §5, §6

Data set [3] relates to Epdermoid Carcinoma (HEP2). It counts as cell-based, human. The conditions noted are these: among all compounds.
Text: as §2, §3
The cell lines Human lung fibroblast (WI38), Colorectal carcinoma Colon cancer (HCT-116) and Epdermoid Carcinoma (HEP2) were used to determine the inhibitory effects of compounds on cell growth using the MTT assay. This colorimetric assay is based on the conversion of the yellow tetrazolium bromide (MTT) to a purple formazan derivative by mitochondrial succinate dehydrogenase in viable cells. Cell lines were cultured in RPMI-1640 medium with 10% fetal bovine serum. […]
5mg/ml was added and incubated for 4 h. […] The colorimetric assay is measured and recorded at absorbance of 570 nm using a plate reader (EXL 800, USA). The relative cell viability in percentage was calculated as (A570 of treated samples/A570 of untreated sample) X 100.

Setting [4] is: WI-38, Figure 6, unit inferred, read-out: IC50 against normal cell line (WI38).
Setting [5] is: HCT-116, Figure 4, unit inferred, read-out: IC50 against colon carcinoma cells (HCT-116).
Where [6] appears, read: WI-38, read-out: IC50 against normal cell line (WI38).
[7] abbreviates: HCT-116, read-out: IC50 against colon carcinoma cells (HCT-116).

Where two headings read alike, the source gives them in different places.

In the case of `CCOP(=O)(OCC)C(Nc1cc(-c2ccc([N+](=O)[O-])cc2)nn1-c1ccccc1)c1cccc(O)c1` (stereo not drawn) [Compound 2b, Diethyl{(3-(4-nitrophenyl)-1-phenyl-1H-pyrazol-5-ylamino)(3-hydroxyphenyl)}methylphosphonate], the melting point (in general, the temperature, or range, at which the solid turns liquid) lay within 252 to 254 °C. For the same molecule, the concentration for half-maximal inhibition (IC50) (in general, the point on the concentration scale where inhibition reaches its midpoint) in data set [1] (setting [4]) was 55.7 µM. The IC50 in data set [2] (setting [5]) was found to be 84.5 µM.

`CCOP(=O)(OCC)C(Nc1cc(-c2ccc([N+](=O)[O-])cc2)nn1-c1ccccc1)c1cccc(Cl)c1` (stereo not drawn) [Compound 2c, Diethyl{(3-(4-nitrophenyl)-1-phenyl-1H-pyrazol-5-ylamino)(3-chlorophenyl)}methylphosphonate] showed a melting point of 150 to 152 °C. In addition, the half-maximal inhibitory concentration (IC50) in data set [1] (setting [4]) amounted to 29.7 µM. In addition, the 50% inhibitory concentration (IC50) in data set [2] (setting [5]) was found to be 45.7 µM.

Regarding `CCOP(=O)(OCC)C(Nc1cc(-c2ccc([N+](=O)[O-])cc2)nn1-c1ccccc1)c1ccc([N+](=O)[O-])cc1` (stereo not drawn) [Compound 2d, Diethyl{(3-(4-nitrophenyl)-1-phenyl-1H-pyrazol-5-ylamino)(4-nitrophenyl)}methylphosphonate], the melting point lay within 234 to 235 °C. The IC50 in data set [1] (setting [4]) came to 41.9 µM. For the same molecule, in data set [2] (setting [5]), the IC50 amounted to 19.9 µM. Also, in data set [2], the “relative activity for colon carcinoma cells (HCT-116), in words” value was “strongest activity”.

On to `CCOP(=O)(OCC)C(Nc1cc(-c2ccc([N+](=O)[O-])cc2)nn1-c1ccccc1)c1ccc(Cl)cc1` (stereo not drawn) [Compound 2e, Diethyl{(3-(4-nitrophenyl)-1-phenyl-1H-pyrazol-5-ylamino)(4-chlorophenyl)}methylphosphonate], for which the melting point is 298 to 300 °C. For the same molecule, the half-maximal inhibitory concentration (IC50) in data set [1] (setting [4]) is 86.3 µM. In addition, in data set [2] (setting [5]), the IC50 came to 57.3 µM.

In turn, `CCOP(=O)(OCC)C(Nc1cc(-c2ccccc2)nn1-c1ccc([N+](=O)[O-])cc1[N+](=O)[O-])c1ccc(N(C)C)cc1` (stereo not drawn) [Compound 2f, Diethyl{(1-(2,4-dinitrophenyl)-3-phenyl-1H-pyrazol-5-ylamino)(4-N,Ndimethylaminophenyl)} methyl phosphonate] registered a melting point of 244 to 246 °C. Further, the half-inhibitory concentration (IC50) in data set [1] (setting [4]) stood at 65.1 µM. Also, the 50% inhibitory concentration (IC50) in data set [2] (setting [5]) came to 37.8 µM.

Take `O=[N+]([O-])c1ccc(-c2cc(NC(c3cccc(O)c3)P(=O)(Oc3ccccc3)Oc3ccccc3)n(-c3ccccc3)n2)cc1` (stereo not drawn) [Compound 4a, Diphenyl{(3-(4-nitrophenyl)-1-phenyl-1H-pyrazol-5-ylamino)(3-hydroxyphenyl)}methylphosphonate]: the melting point fell in the range of 266 to 268 °C. Further, the IC50 in data set [1] (setting [6]) came out at 47.1 µM. In data set [2] (setting [7]), the IC50 came out at 73.2 µM.

In turn, `O=[N+]([O-])c1ccc(-c2cc(NC(c3ccc([N+](=O)[O-])cc3)P(=O)(Oc3ccccc3)Oc3ccccc3)n(-c3ccccc3)n2)cc1` (stereo not drawn) [Compound 4b, Diphenyl{(3-(4-nitrophenyl)-1-phenyl-1H-pyrazol-5-ylamino)(4-nitrophenyl)}methylphosphonate] registered a melting point of 167 to 168 °C. Moreover, the “relative activity for Epdermoid Carcinoma (HEP2), in words” value in data set [3] was “highest activity”. For the same molecule, in data set [1] (setting [6]), the IC50 was found to be 62.8 µM. The 50% inhibitory concentration (IC50) in data set [2] (setting [7]) came out at 15.1 µM. For the same molecule, in data set [2], the “relative activity for colon carcinoma cells (HCT-116), in words” value is “strongest activity”.

For the molecule `O=[N+]([O-])c1cccc(C(Nc2cc(-c3ccccc3)nn2-c2ccc([N+](=O)[O-])cc2[N+](=O)[O-])P(=O)(Oc2ccccc2)Oc2ccccc2)c1` (stereo not drawn) [Compound 4c, Diphenyl{(1-(2,4-dinitrophenyl)-3-phenyl-1H-pyrazol-5-ylamino)(3-nitrophenyl)}methyl phosphonate], the half-inhibitory concentration (IC50) in data set [1] (setting [6]) was above 100 µM; in data set [2] (setting [7]), 51.3 µM.

In the case of `CN(C)c1ccc(C(Nc2cc(-c3ccccc3)nn2-c2ccc([N+](=O)[O-])cc2[N+](=O)[O-])P(=O)(Oc2ccccc2)Oc2ccccc2)cc1` (stereo not drawn) [Compound 4d, Diphenyl{(1-(2,4-dinitrophenyl)-3-phenyl-1H-pyrazol-5-ylamino)(4-N,N-dimethylaminophenyl)} methyl phosphonate], the melting point is 212 to 214 °C. Besides, the “relative activity for Epdermoid Carcinoma (HEP2), in words” value in data set [3] is “highest activity”. Also, the half-maximal inhibitory concentration (IC50) in data set [1] (setting [6]) is 78.3 µM. Further, the half-inhibitory concentration (IC50) in data set [2] (setting [7]) turned out to be 26.1 µM.

The values above are taken from PMC10482913, “A new class of anticancer activity with computational studies for a novel bioactive aminophosphonates based on pyrazole moiety” (Scientific Reports, 2023).
